For one data set, the target named is PDE10A (Homo sapiens, UniProt Q9Y233). Briefly: luminescence PDE inhibition assay (PDElight HTS cAMP phosphodiesterase assay kit). It is filed as biochemical. The following applies: for inhibition at 3 µM / inhibition at 10 µM: 1 h, percentage of inhibition respective to vehicle control (DMSO); for IC50: SEM of three independent experiments performed in duplicate. The protocol: Test and reference compounds were dissolved in dimethyl sulfoxide (DMSO) at a concentration of 1 mM and further diluted in assay buffer in order to obtain the final concentration of compounds: 10 µM and 3 µM, respectively. All reactions were carried out at 37 °C in white, half-area 96-well plates (Perkin Elmer, Waltham, MA, USA). The inhibition of PDE 10A enzyme was measured using the PDElight HTS cAMP phosphodiesterase assay kit (Lonza) according to the manufacturer’s recommendations. 2.5 U of PDE 10A enzyme was preincubated either with DMSO (vehicle control) or compound for 20 min before incubation with the substrate, cAMP (final concentration 1.25 µM), for 1 h. Then, PDELight AMP Detection Reagent was added. After 10 min incubation, the luminescence was measured in a multifunction plate reader (POLARstar Omega, BMG Labtech, Ortenberg, Germany).

For another data set, the target named is T1, 5-HT1A receptor (Homo sapiens, UniProt P08908).
T1 sequence (P08908 1-422): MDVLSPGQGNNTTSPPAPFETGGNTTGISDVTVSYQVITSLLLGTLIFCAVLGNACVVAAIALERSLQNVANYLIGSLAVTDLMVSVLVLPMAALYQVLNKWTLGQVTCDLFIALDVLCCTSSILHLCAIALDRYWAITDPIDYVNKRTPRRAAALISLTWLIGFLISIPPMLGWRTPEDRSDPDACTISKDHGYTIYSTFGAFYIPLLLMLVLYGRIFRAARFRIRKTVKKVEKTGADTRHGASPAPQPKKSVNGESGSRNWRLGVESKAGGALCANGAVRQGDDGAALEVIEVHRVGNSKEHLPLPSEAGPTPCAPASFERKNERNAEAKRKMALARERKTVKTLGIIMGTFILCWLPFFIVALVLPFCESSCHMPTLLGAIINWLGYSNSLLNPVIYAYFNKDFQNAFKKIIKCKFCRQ
In words: radioligand binding assay, [3H]8-OH-DPAT. As to conditions: read-out: 5-HT1A 1 µM ± SEM (% of control specific binding). The protocol:
(§1) Briefly: binding experiments were conducted in 96-well microplates in a total final volume of 250 μL of appropriate buffers. Reaction mix included 50 μL solution of test compound, 50 μL of radioligand ([^3H]8-OH-DPAT for 5-HT1A, and [^3H]-LSD for 5-HT7, respectively) and 150 μL of diluted membranes (see description and Table S2 in Supporting Materials). Specific assay conditions for each receptor are described elsewhere. The radioactivity was measured in a MicroBeta2 scintillation counter (PerkinElmer, USA). Each compound was tested in the assay as duplicate samples at 1 µM final concentrations. Results were expressed as percent inhibition of specific binding.

The next data set concerns the target 5-HT7 receptor (Homo sapiens, UniProt P34969). In words: radioligand binding assay, [3H]-LSD. The following applies: read-out: 5-HT7 1 µM ± SEM (% of control specific binding). The protocol: as §1

Each structure is given as a SMILES string.

Chain of PDE10A (Q9Y233 whole entry, species assumed): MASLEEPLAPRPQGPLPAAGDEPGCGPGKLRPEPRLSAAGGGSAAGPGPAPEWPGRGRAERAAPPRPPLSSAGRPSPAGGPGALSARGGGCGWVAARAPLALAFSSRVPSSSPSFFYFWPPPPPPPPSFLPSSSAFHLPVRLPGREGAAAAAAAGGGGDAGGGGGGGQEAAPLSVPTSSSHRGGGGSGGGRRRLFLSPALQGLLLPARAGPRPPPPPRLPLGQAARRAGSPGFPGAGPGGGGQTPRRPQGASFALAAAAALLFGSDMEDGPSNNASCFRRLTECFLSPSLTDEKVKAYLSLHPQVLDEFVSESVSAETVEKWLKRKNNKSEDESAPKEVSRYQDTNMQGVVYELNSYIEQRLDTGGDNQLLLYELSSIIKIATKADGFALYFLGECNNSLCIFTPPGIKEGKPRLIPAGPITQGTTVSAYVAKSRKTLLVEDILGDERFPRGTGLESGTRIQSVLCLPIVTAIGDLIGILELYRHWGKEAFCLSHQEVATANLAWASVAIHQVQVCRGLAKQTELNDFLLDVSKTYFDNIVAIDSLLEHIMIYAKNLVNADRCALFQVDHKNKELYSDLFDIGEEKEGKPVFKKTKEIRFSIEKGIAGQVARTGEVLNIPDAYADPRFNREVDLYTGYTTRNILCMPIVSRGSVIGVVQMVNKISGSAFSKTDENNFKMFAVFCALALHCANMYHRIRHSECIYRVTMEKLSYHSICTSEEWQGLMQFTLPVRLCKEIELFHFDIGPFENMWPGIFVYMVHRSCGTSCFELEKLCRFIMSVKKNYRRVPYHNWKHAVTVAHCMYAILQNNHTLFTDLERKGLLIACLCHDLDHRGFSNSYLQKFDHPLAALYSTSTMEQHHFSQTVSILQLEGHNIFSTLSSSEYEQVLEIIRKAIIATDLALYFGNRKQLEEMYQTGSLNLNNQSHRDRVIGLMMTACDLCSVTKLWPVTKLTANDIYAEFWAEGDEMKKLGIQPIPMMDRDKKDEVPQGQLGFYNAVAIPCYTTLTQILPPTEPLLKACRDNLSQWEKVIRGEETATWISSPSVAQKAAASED
Chain of 5-HT7 receptor (P34969 whole entry): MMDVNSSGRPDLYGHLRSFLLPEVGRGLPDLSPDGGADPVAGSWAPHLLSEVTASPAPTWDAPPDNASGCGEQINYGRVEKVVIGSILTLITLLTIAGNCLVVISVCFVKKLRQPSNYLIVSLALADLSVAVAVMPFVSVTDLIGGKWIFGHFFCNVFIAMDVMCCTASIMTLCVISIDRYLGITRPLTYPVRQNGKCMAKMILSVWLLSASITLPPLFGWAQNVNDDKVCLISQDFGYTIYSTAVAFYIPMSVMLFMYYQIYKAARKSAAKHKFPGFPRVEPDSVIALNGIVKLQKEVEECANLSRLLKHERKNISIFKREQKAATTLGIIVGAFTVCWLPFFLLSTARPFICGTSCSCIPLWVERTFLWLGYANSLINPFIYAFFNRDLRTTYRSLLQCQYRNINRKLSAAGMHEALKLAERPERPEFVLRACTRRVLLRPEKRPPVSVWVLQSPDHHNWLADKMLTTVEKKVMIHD

With `COc1cc2c(cc1OC)CN(CCN1C(=O)c3cccc(OC)c3C1=O)CC2` [Compound 3, 2-[2-(6,7-Dimethoxy-3,4-dihydroisoquinolin-2(1H)-yl)ethyl]-4-methoxy-1H-isoindole-1,3(2H)-dione], the melting point (in general, the temperature, or range, at which the solid turns liquid) fell in the range of 108 to 109 °C. At PDE10A, this compound came in with an inhibition at 3 µM of 0% and an inhibition at 10 µM of 0%. Also, the inhibition at 1 µM at 5-HT1A receptor was 27 ± 3%. Besides, the inhibition at 1 µM on 5-HT7 receptor was 0%.

`COc1cccc2c1C(=O)N(CCN1CCc3ccccc3C1)C2=O` [Compound 4, 2-[2-(3,4-Dihydroisoquinolin-2(1H)-yl)ethyl]-4-methoxy-1H-isoindole-1,3(2H)-dione] returned a melting point of 157 to 158 °C. For the same compound, on PDE10A, the inhibition at 3 µM turned out to be 0% and the inhibition at 10 µM was determined as 0%. Further, the inhibition at 1 µM at 5-HT1A receptor worked out at 12 ± 4%. Moreover, the inhibition at 1 µM on 5-HT7 receptor was 0%.

With `COc1cccc2c1C(=O)N(CCN1CCC3CCCCC3C1)C2=O` (stereo not drawn) [Compound 5, 2-[2-(Octahydroisoquinolin-2(1H)-yl)ethyl]-4-methoxy-1H-isoindole-1,3(2H)-dione], the melting point fell in the range of 145 to 146 °C. At PDE10A, this compound gave an inhibition at 3 µM of 0% and an inhibition at 10 µM of 0%. In addition, the inhibition at 1 µM on 5-HT1A receptor was found to be 25 ± 3%. Also, the inhibition at 1 µM at 5-HT7 receptor amounted to 0%.

In turn, `COc1cc2c(cc1OC)CN(CCCN1C(=O)c3cccc(OC)c3C1=O)CC2` [Compound 6, 2-[3-(6,7-Dimethoxy-3,4-dihydroisoquinolin-2(1H)-yl)propyl]-4-methoxy-1H-isoindole-1,3(2H)-dione] displayed a melting point of 107 to 109 °C. On PDE10A, the inhibition at 3 µM was determined as 0% and the inhibition at 10 µM is 0%. Besides, at 5-HT1A receptor, the inhibition at 1 µM came to 32 ± 4%. Also, the inhibition at 1 µM on 5-HT7 receptor is 0%.

Turning to `COc1cccc2c1C(=O)N(CCCN1CCc3ccccc3C1)C2=O` [Compound 7, 2-[3-(3,4-Dihydroisoquinolin-2(1H)-yl)propyl]-4-methoxy-1H-isoindole-1,3(2H)-dione], the melting point lay within 92 to 93 °C. Besides, at PDE10A, the inhibition at 3 µM came to 18% and the inhibition at 10 µM is 19%. In addition, on 5-HT1A receptor, the inhibition at 1 µM came to 33 ± 2%. For the same compound, the inhibition at 1 µM at 5-HT7 receptor stood at 51 ± 2%.

With `COc1cccc2c1C(=O)N(CCCN1CCC3CCCCC3C1)C2=O` (stereo not drawn) [Compound 8, 2-[3-(Octahydroisoquinolin-2(1H)-yl)propyl]-4-methoxy-1H-isoindole-1,3(2H)-dione], the melting point is 103 to 104 °C. Also, on PDE10A, the inhibition at 3 µM came to 7% and the inhibition at 10 µM amounted to 7%. For the same compound, the inhibition at 1 µM on 5-HT1A receptor worked out at 28 ± 3%. Moreover, the inhibition at 1 µM on 5-HT7 receptor came to 0%.

`COc1cccc2c1C(=O)N(Cc1ccccc1)C2=O` [Compound 9, 2-Benzyl-4-methoxy-1H-isoindole-1,3(2H)-dione] yielded a melting point of 167 to 168 °C. At PDE10A, the inhibition at 3 µM was 0% and the inhibition at 10 µM was 0%. The inhibition at 1 µM at 5-HT1A receptor came to 6 ± 2%. For the same compound, on 5-HT7 receptor, the inhibition at 1 µM worked out at 0%.

Consider `COc1cccc2c1C(=O)N(Cc1ccccn1)C2=O` [Compound 10, 4-Methoxy-2-(pyridin-2-ylmethyl)-1H-isoindole-1,3(2H)-dione], for which the melting point fell in the range of 144 to 145 °C. At PDE10A, the inhibition at 3 µM was 0% and the inhibition at 10 µM turned out to be 0%. For the same compound, the inhibition at 1 µM on 5-HT1A receptor amounted to 10 ± 1%. Besides, the inhibition at 1 µM at 5-HT7 receptor worked out at 0%.

The compound `COc1cccc2c1C(=O)N(Cc1nc3ccccc3[nH]1)C2=O` [Compound 11, 2-(1H-Benzimidazol-2-ylmethyl)-4-methoxy-1H-isoindole-1,3(2H)-dione] showed a melting point of 239 to 240 °C. On PDE10A, this compound returned an inhibition at 3 µM of 7% and an inhibition at 10 µM of 15%. Besides, on 5-HT1A receptor, the inhibition at 1 µM was 39 ± 3%. Also, the inhibition at 1 µM on 5-HT7 receptor is 0%.

With `COc1cccc2c1C(=O)N(CCc1ccccc1)C2=O` [Compound 12, 4-Methoxy-2-(2-phenylethyl)-1H-isoindole-1,3(2H)-dione], the melting point lay within 123 to 124 °C. At PDE10A, the inhibition at 3 µM is 5% and the inhibition at 10 µM was found to be 10%. For the same compound, at 5-HT1A receptor, the inhibition at 1 µM was determined as 13 ± 2%. Besides, at 5-HT7 receptor, the inhibition at 1 µM turned out to be 0%.

`COc1cccc2c1C(=O)N(CCc1ccccn1)C2=O` [Compound 13, 4-Methoxy-2-[2-(pyridin-2-yl)ethyl]-1H-isoindole-1,3(2H)-dione] gave a melting point of 155 to 157 °C. At PDE10A, this compound yielded an inhibition at 3 µM of 0% and an inhibition at 10 µM of 0%. The inhibition at 1 µM on 5-HT1A receptor was found to be 59 ± 4%. Further, the inhibition at 1 µM on 5-HT7 receptor stood at 0%.

For the compound `COc1cccc2c1C(=O)N(CCc1c[nH]cn1)C2=O` [Compound 14, 2-[2-(1H-Imidazol-4-yl)ethyl]-4-methoxy-1H-isoindole-1,3(2H)-dione], the melting point fell in the range of 227 to 228 °C. At PDE10A, this compound had an inhibition at 3 µM of 0% and an inhibition at 10 µM of 0%. Further, the inhibition at 1 µM at 5-HT1A receptor came to 21 ± 1%. In addition, the inhibition at 1 µM at 5-HT7 receptor worked out at 0%.

As for `COc1cccc2c1C(=O)N(CCc1nc3ccccc3[nH]1)C2=O` [Compound 15, 2-[2-(1H-Benzimidazol-2-yl)ethyl]-4-methoxy-1H-isoindole-1,3(2H)-dione], the melting point lay within 197 to 198 °C. For the same compound, on PDE10A, the inhibition at 3 µM was 40%; the inhibition at 10 µM was 70%; the concentration for half-maximal inhibition (IC50) (as a rule, the concentration needed to halve the response being measured) turned out to be 6.71 ± 0.195 µM. Further, the inhibition at 1 µM on 5-HT1A receptor came to 44 ± 5%. Moreover, the inhibition at 1 µM on 5-HT7 receptor was 0%.

As for `COc1cccc2c1C(=O)N(CCCc1ccccc1)C2=O` [Compound 16, 4-Methoxy-2-(3-phenylpropyl)-1H-isoindole-1,3(2H)-dione], the melting point lay in the range of 94 to 95 °C. At PDE10A, this compound gave an inhibition at 3 µM of 11% and an inhibition at 10 µM of 13%. In addition, at 5-HT1A receptor, the inhibition at 1 µM was determined as 32 ± 3%. Besides, the inhibition at 1 µM at 5-HT7 receptor was 14%.

As to `COc1cccc2c1C(=O)N(CCCc1nc3ccccc3[nH]1)C2=O` [Compound 17, 2-[3-(1H-Benzimidazol-2-yl)propyl]-4-methoxy-1H-isoindole-1,3(2H)-dione], the melting point lay within 217 to 218 °C. On PDE10A, this compound came in with an inhibition at 3 µM of 73%, an inhibition at 10 µM of 86% and a half-inhibitory concentration (IC50) of 1.001 ± 0.009 µM. For the same compound, the inhibition at 1 µM at 5-HT1A receptor was 16 ± 5%. In addition, the inhibition at 1 µM at 5-HT7 receptor came to 10 ± 3%.

`COc1cccc2c1C(=O)N(CCCCCc1nc3ccccc3[nH]1)C2=O` [Compound 19, 2-[5-(1H-Benzimidazol-2-yl)pentyl]-4-methoxy-1H-isoindole-1,3(2H)-dione] returned a melting point of 108 to 109 °C. On PDE10A, this compound returned an inhibition at 3 µM of 52%, an inhibition at 10 µM of 75% and a half-maximal inhibitory concentration (IC50) of 4.31 ± 0.365 µM. Further, the inhibition at 1 µM at 5-HT1A receptor was determined as 28 ± 2%. Further, the inhibition at 1 µM on 5-HT7 receptor was determined as 6%.

With `O=C1c2ccccc2C(=O)N1CCc1nc2ccccc2[nH]1` [Compound 20, 2-[2-(1H-Benzimidazol-2-yl)ethyl]-1H-isoindole-1,3(2H)-dione], the melting point fell in the range of 202 to 203 °C. Also, at PDE10A, the inhibition at 3 µM worked out at 0% and the inhibition at 10 µM is 1%. Further, the inhibition at 1 µM on 5-HT1A receptor was found to be 26 ± 2%. The inhibition at 1 µM at 5-HT7 receptor worked out at 36%.

The compound `O=C1c2ccccc2C(=O)N1CCCc1nc2ccccc2[nH]1` [Compound 21, 2-[3-(1H-Benzimidazol-2-yl)propyl]-1H-isoindole-1,3(2H)-dione] gave a melting point of 190 to 191 °C. On PDE10A, this compound registered an inhibition at 3 µM of 16% and an inhibition at 10 µM of 45%. Also, at 5-HT1A receptor, the inhibition at 1 µM stood at 27 ± 2%. The inhibition at 1 µM on 5-HT7 receptor was 14 ± 2%.

In turn, `O=C1c2ccccc2C(=O)N1CCCCc1nc2ccccc2[nH]1` [Compound 22, 2-[4-(1H-Benzimidazol-2-yl)butyl]-1H-isoindole-1,3(2H)-dione] yielded a melting point of 179 to 180 °C. On PDE10A, this compound yielded an inhibition at 3 µM of 47%, an inhibition at 10 µM of 73% and an IC50 of 5.65 ± 0.495 µM. Moreover, on 5-HT1A receptor, the inhibition at 1 µM was determined as 20 ± 3%. For the same compound, at 5-HT7 receptor, the inhibition at 1 µM came to 15 ± 2%.

Values taken from publication PMC7504677, “Impact of N-Alkylamino Substituents on Serotonin Receptor (5-HTR) Affinity and Phosphodiesterase 10A (PDE10A) Inhibition of Isoindole-1,3-dione Derivatives” (Molecules, 2020).
